Earlier results as cited in patent publication US20170072072A1, “PH SENSITIVE FLUORESCENT COMPOUNDS AND METHODS FOR TUMOR DETECTION” (THE METHODIST HOSPITAL SYSTEM, priority 2014, published 2017).

Settings: in DMSO

## CC1(C)C(/C=C/C=C/C=C/C=C2\N(CCCCS(=O)(=O)O)c3ccc4ccccc4c3C2(C)C)=[N+](CCCCS(=O)(=O)[O-])c2ccc3ccccc3c21 [indocyanine green]
  quantum yield Φ of reference: 0.106
